# US20150344540A1, “NOVEL GLP-1 RECEPTOR AGONISTS WITH CHOLESTEROL EFFLUX ACTIVITY” (NOVO NORDISK A/S, priority 2012, published 2015)
# Where two headings read alike, the source gives them in different places. Where a SMILES comes first, the peptide text is derived from it. [ ]: non-standard residue; d: D form. Aib = CC(C)(N)C(=O)O
# Tests used:
# [1] = Pharmacokinetics in mini-pigs after i.v. administration; details: female, Göttingen, minipig, iv, 5 nmol/kg
# Text: The aim of the study is to assess the pharmacokinetic properties of the compounds of the invention, in mini-pigs.
# Göttingen mini-pigs female, 15-20 kg, purchased from Ellegaard Mini-pigs, Denmark, were housed in the Animal Unit, Novo Nordisk A/S and were kept and handled according to normal procedure in the Animal Unit. After minimum 2 weeks of acclimatization two permanent central venous catheters were implemented in vena cava caudalis in each animal. After surgery the animals were in their normal individual pens during the pharmacokinetic experiments.
# Intravenous injections were given through the central short catheter, which was flushed with min 10 ml of sterile saline post administration. The test substance was dosed at 5 nmol/kg, N=3, in a volume of 0.05 ml/kg.
# On day 1 the catheters are coupled to extension tubes, which will be removed at the end of day 1.
# Samples were kept on wet ice until centrifugation (10 min, 4° C., 1942 g). Afterwards, plasma (min. 100 μl) was transferred immediately to Micronic tubes and kept at −20° C. until analysis. The plasma samples were analysed by an immunoaasay described below.
# The plasma concentrations of the peptides with intact N-terminus were determined using a Luminescence Oxygen Chanelling Immuno-assay (LOCI). The donor beads were coated with streptavidin, while acceptor beads were conjugated with a monoclonal antibody recognizing a mid-/C-terminal epitope of the peptide. The other monoclonal antibody, specific for the N-terminus, was biotinylated. The three reactants were combined with the analyte and formed a two-sited immuno-complex. Illumination of the complex released singlet oxygen atoms from the donor beads, which were channeled into the acceptor beads and triggered chemi-luminescence which was measured in an Envision plate reader. The amount of light was proportional to the concentration of the compound.
# Plasma concentration-time profiles was analysed by a non-compartmental pharmacokinetics analysis using Phoenix (Pharsight Inc., Mountain View, Calif., USA). Calculations were performed using individual concentration-time values from each animal.
# human GLP-1 receptor = human GLP-1 receptor (Homo sapiens, UniProt P43220); experiment: Functional GLP-1 receptor assay, in vitro potency (CRE luciferase; whole cells); assay type: cell-based; details: BHK cells expressing human GLP-1 receptor
# Sequence of human GLP-1 receptor (P43220 24-463): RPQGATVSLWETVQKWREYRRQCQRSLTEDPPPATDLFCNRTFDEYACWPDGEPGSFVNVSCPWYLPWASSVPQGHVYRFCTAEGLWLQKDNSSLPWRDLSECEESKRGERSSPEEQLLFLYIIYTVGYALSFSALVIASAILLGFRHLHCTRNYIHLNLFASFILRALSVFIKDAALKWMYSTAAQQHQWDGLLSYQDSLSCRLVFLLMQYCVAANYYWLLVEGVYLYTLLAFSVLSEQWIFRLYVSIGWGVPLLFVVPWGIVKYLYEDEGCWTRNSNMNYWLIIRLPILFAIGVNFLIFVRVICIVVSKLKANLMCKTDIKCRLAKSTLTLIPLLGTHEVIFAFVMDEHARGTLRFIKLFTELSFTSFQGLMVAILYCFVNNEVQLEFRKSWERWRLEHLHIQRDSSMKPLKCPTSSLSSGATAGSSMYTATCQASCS
# [2] = test system: Mouse monocyte/macrophage cell line, RAW 264.7; experiment: Cholesterol efflux assay (3H-cholesterol, macrophage cell line); assay type: cell-based; details: RAW 264.7, 4 hrs incubation, 0.1% human serum albumin; for 4 h Cholesterol Efflux Emax: ABCA1-mediated efflux
# [3] = plasma, T1/2 Mean Value, Göttingen mini-pigs, N=3
# [4] = 0% HSA, read-out: GLP1R CRE luc 0% HSA EC50 Mean Value
# [5] = GLP1R CRE luc 1% HSA EC50 Mean Value, 1% HSA
SMILES,C0 ([1]; plasma),Vd ([1]; plasma),clearance ([1]; plasma),"half-life [1, 3]",EC50 (human GLP-1 receptor; [4]),EC50 (human GLP-1 receptor; [5]),4 h Cholesterol Efflux Emax [2],C0 ([1]; in vivo),Vd ([1]; in vivo),clearance ([1]; in vivo),half-life ([1]; in vivo),"EC50 (human GLP-1 receptor; GLP1R CRE luc 0% HSA EC50 Mean Value, 0% HSA)","EC50 ([2]; read-out: 4 h Cholesterol Efflux EC50, ABCA1-mediated efflux (CPT-cAMP induced minus non-induced))"
"CC[C@H](C)[C@H](NC(=O)[C@H](Cc1ccccc1)NC(=O)[C@H](CCC(=O)O)NC(=O)[C@H](CCCCN)NC(=O)[C@@H](NC(=O)[C@H](C)NC(=O)[C@H](CCC(=O)O)NC(=O)CNC(=O)[C@H](CCC(=O)O)NC(=O)[C@H](CC(C)C)NC(=O)[C@H](Cc1ccc(O)cc1)NC(=O)[C@H](CO)NC(=O)[C@H](CO)NC(=O)[C@@H](NC(=O)[C@H](CC(=O)O)NC(=O)[C@H](CO)NC(=O)[C@@H](NC(=O)[C@H](Cc1ccccc1)NC(=O)[C@@H](NC(=O)CNC(=O)[C@H](CCC(=O)O)NC(=O)C(C)(C)NC(=O)[C@@H](N)Cc1c[nH]cn1)[C@@H](C)O)[C@@H](C)O)C(C)C)C(C)C)C(=O)N[C@@H](C)C(=O)N[C@@H](Cc1c[nH]c2ccccc12)C(=O)N[C@@H](CC(C)C)C(=O)N[C@H](C(=O)N[C@@H](CCC(=O)O)C(=O)N[C@@H](CCCCN)C(=O)N[C@H](C(=O)N[C@@H](CCCCN)C(=O)N[C@@H](CCC(=O)O)C(=O)N[C@@H](CCCCN)C(=O)N[C@@H](CC(C)C)C(N)=O)C(C)C)C(C)C [Compound 118, [Aib8,Glu23,Val25,Glu34,Lys35,Val36,Lys37]-GLP-1-(7-37)-peptidyl-Glu-Lys-Leu amide] (H-H[Aib]EGTFTSDVSSYLEGEAVKEFIAWLVEKVKEKL-NH2)",62.9 nM,0.0809 L/kg,4.99 mL/h/kg,11.2 h,0.059 nM,0.029 nM,136%,,,,,,
CC(C)C[C@H](NC(=O)[C@H](Cc1ccccc1)NC(=O)[C@H](CCC(=O)O)NC(=O)[C@H](CCCCN)NC(=O)C(C)(C)NC(=O)[C@H](CCCCN)NC(=O)[C@H](CCC(=O)O)NC(=O)[C@H](CC(C)C)NC(=O)[C@H](CC(C)C)NC(=O)[C@H](Cc1c[nH]c2ccccc12)NC(=O)[C@H](CCC(N)=O)NC(=O)[C@@H](NC(=O)[C@H](Cc1ccccc1)NC(=O)[C@H](CCC(=O)O)NC(=O)[C@H](CCCNC(=N)N)NC(=O)[C@H](C)NC(=O)[C@H](C)NC(=O)[C@H](CCCCN)NC(=O)[C@H](CO)NC(=O)[C@H](CC(=O)O)NC(=O)[C@H](CC(C)C)NC(=O)[C@H](Cc1ccc(O)cc1)NC(=O)[C@H](CCCCN)NC(=O)[C@H](CO)NC(=O)[C@H](Cc1ccc(O)cc1)NC(=O)[C@H](CC(=O)O)NC(=O)[C@H](CO)NC(=O)[C@@H](NC(=O)[C@H](Cc1ccccc1)NC(=O)[C@@H](NC(=O)CNC(=O)[C@H](CCC(N)=O)NC(=O)C(C)(C)NC(=O)[C@@H](N)Cc1c[nH]cn1)[C@@H](C)O)[C@@H](C)O)C(C)C)C(N)=O [Compound 26] (H-H[Aib]QGTFTSDYSKYLDSKAAREFVQWLLEK[Aib]KEFL-NH2),,,,,,0.153 nM,87%,123 nM,0.0549 L/kg,5.21 mL/h/kg,7.3 h,0.393 nM,200 nM
"CC[C@H](C)[C@H](NC(=O)[C@H](Cc1ccccc1)NC(=O)[C@H](CCC(=O)O)NC(=O)[C@H](CCCCN)NC(=O)[C@@H](NC(=O)[C@H](CCCCN)NC(=O)[C@H](CCC(=O)O)NC(=O)CNC(=O)[C@H](CCC(=O)O)NC(=O)[C@H](CC(C)C)NC(=O)[C@H](Cc1ccc(O)cc1)NC(=O)[C@H](CO)NC(=O)[C@H](CO)NC(=O)[C@@H](NC(=O)[C@H](CC(=O)O)NC(=O)[C@H](CO)NC(=O)[C@@H](NC(=O)[C@H](Cc1ccccc1)NC(=O)[C@@H](NC(=O)CNC(=O)[C@H](CCC(=O)O)NC(=O)C(C)(C)NC(=O)[C@@H](N)Cc1c[nH]cn1)[C@@H](C)O)[C@@H](C)O)C(C)C)C(C)C)C(=O)N[C@@H](C)C(=O)N[C@@H](Cc1c[nH]c2ccccc12)C(=O)N[C@@H](CC(C)C)C(=O)N[C@H](C(=O)N[C@@H](CCC(=O)O)C(=O)NCC(=O)NC(C)(C)C(=O)N[C@@H](CCCCN)C(=O)N[C@@H](CCC(=O)O)C(=O)N[C@@H](Cc1ccccc1)C(=O)N[C@@H](CC(C)C)C(N)=O)C(C)C [Compound 64, [Aib8,Glu23,Lys24,Val25,Glu34,Aib36,Lys37]-GLP-1-(7-37)-peptidyl-Glu-Phe-Leu amide] (H-H[Aib]EGTFTSDVSSYLEGEKVKEFIAWLVEG[Aib]KEFL-NH2)",86.9 nM,0.0879 L/kg,2.41 mL/h/kg,25.2 h,,0.111 nM,100%,,,,,,

# Further lines, with some results ahead:
C0 ([1]; plasma),Vd ([1]; plasma),clearance ([1]; plasma),"half-life [1, 3]",EC50 (human GLP-1 receptor; [4]),EC50 (human GLP-1 receptor; [5]),SMILES,4 h Cholesterol Efflux Emax [2],C0 ([1]; in vivo),Vd ([1]; in vivo),clearance ([1]; in vivo),half-life ([1]; in vivo),"EC50 (human GLP-1 receptor; GLP1R CRE luc 0% HSA EC50 Mean Value, 0% HSA)","EC50 ([2]; read-out: 4 h Cholesterol Efflux EC50, ABCA1-mediated efflux (CPT-cAMP induced minus non-induced))"
147 nM,0.154 L/kg,2.39 mL/h/kg,44.9 h,0.108 nM,0.042 nM,"CC[C@H](C)[C@H](NC(=O)[C@H](Cc1ccccc1)NC(=O)[C@H](CCC(=O)O)NC(=O)[C@H](CCCCN)NC(=O)[C@H](C)NC(=O)[C@H](C)NC(=O)[C@H](CCC(N)=O)NC(=O)CNC(=O)[C@H](CCC(=O)O)NC(=O)[C@H](CC(C)C)NC(=O)[C@H](Cc1ccc(O)cc1)NC(=O)[C@H](CO)NC(=O)[C@H](CO)NC(=O)[C@@H](NC(=O)[C@H](CC(=O)O)NC(=O)[C@H](CO)NC(=O)[C@@H](NC(=O)[C@H](Cc1ccccc1)NC(=O)[C@@H](NC(=O)CNC(=O)[C@H](CCC(=O)O)NC(=O)C(C)(C)NC(=O)[C@@H](N)Cc1c[nH]cn1)[C@@H](C)O)[C@@H](C)O)C(C)C)C(=O)N[C@@H](C)C(=O)N[C@@H](Cc1c[nH]c2ccccc12)C(=O)N[C@@H](CC(C)C)C(=O)N[C@H](C(=O)N[C@@H](CCC(=O)O)C(=O)N[C@@H](CCCCN)C(=O)NC(C)(C)C(=O)N[C@@H](CCCCN)C(=O)N[C@@H](CCC(=O)O)C(=O)N[C@@H](Cc1ccccc1)C(=O)N[C@@H](CC(C)C)C(N)=O)C(C)C [Compound 45, [Aib8,Glu34,Lys35,Aib36,Lys37]-GLP-1-(7-37)-peptidyl-Glu-Phe-Leu amide]",97%,,,,,,
85.5 nM,0.0743 L/kg,6.3 mL/h/kg,8.3 h,0.045 nM,0.015 nM,CC[C@H](C)[C@H](NC(=O)[C@H](Cc1ccccc1)NC(=O)[C@H](CCC(=O)O)NC(=O)[C@H](CCCCN)NC(=O)[C@H](C)NC(=O)[C@H](C)NC(=O)[C@H](CCC(N)=O)NC(=O)CNC(=O)[C@H](CCC(=O)O)NC(=O)[C@H](CC(C)C)NC(=O)[C@H](Cc1ccc(O)cc1)NC(=O)[C@H](CO)NC(=O)[C@H](CO)NC(=O)[C@@H](NC(=O)[C@H](CC(=O)O)NC(=O)[C@H](CO)NC(=O)[C@@H](NC(=O)[C@H](Cc1ccccc1)NC(=O)[C@@H](NC(=O)CNC(=O)[C@H](CCC(=O)O)NC(=O)C(C)(C)NC(=O)[C@@H](N)Cc1c[nH]cn1)[C@@H](C)O)[C@@H](C)O)C(C)C)C(=O)N[C@@H](C)C(=O)N[C@@H](Cc1c[nH]c2ccccc12)C(=O)N[C@@H](CC(C)C)C(=O)N[C@H](C(=O)N[C@@H](CCCCN)C(=O)N[C@@H](CCCCN)C(=O)NC(C)(C)C(=O)NCC(=O)N[C@@H](CCC(=O)O)C(=O)N[C@@H](Cc1ccccc1)C(=O)N[C@@H](CC(C)C)C(N)=O)C(C)C [Compound 48],71%,,,,,,
115 nM,0.0613 L/kg,54.9 mL/h/kg,0.8 h,0.015 nM,0.004 nM,"CC[C@H](C)[C@H](NC(=O)[C@H](Cc1ccccc1)NC(=O)[C@H](CCC(=O)O)NC(=O)[C@H](CCCCN)NC(=O)[C@@H](NC(=O)[C@H](C)NC(=O)[C@H](CCC(=O)O)NC(=O)CNC(=O)[C@H](CCC(=O)O)NC(=O)[C@H](CC(C)C)NC(=O)[C@H](Cc1ccc(O)cc1)NC(=O)[C@H](CO)NC(=O)[C@H](CO)NC(=O)[C@@H](NC(=O)[C@H](CC(=O)O)NC(=O)[C@H](CO)NC(=O)[C@@H](NC(=O)[C@H](Cc1ccccc1)NC(=O)[C@@H](NC(=O)CNC(=O)[C@H](CCC(=O)O)NC(=O)C(C)(C)NC(=O)[C@@H](N)Cc1c[nH]cn1)[C@@H](C)O)[C@@H](C)O)C(C)C)C(C)C)C(=O)N[C@@H](C)C(=O)N[C@@H](Cc1c[nH]c2ccccc12)C(=O)N[C@@H](CC(C)C)C(=O)N[C@H](C(=O)N[C@@H](CCC(=O)O)C(=O)N[C@@H](CCCCN)C(=O)NC(C)(C)C(=O)N[C@@H](CCCCN)C(N)=O)C(C)C [Compound 11, [Aib8,Glu23,Val25,Glu34,Lys35,Aib36,Lys37]-GLP-1-(7-37)-peptide amide] (H-H[Aib]EGTFTSDVSSYLEGEAVKEFIAWLVEK[Aib]K-NH2)",135%,,,,,,
